According to publication PMC12752627, “Discovery of a Potent and Selective TEAD Degrader with Durable Degradation Activity” (Advanced Science, 2025):

Experiments:
[1] = test system: A172 cells; test: Cell viability assay (CTG, 72 h) A172; type: cell-based; conditions: Homo sapiens, A 172, 72 h, 3-day compound treatment
Procedure: Cells were seeded at a density of 1000 cells per well in 96‐well flat‐bottomed cell culture plates and cultured overnight at 37 °C with 5% CO2 to allow for cell attachment. The following day, different concentrations of compounds were added using an I‐DOT dispenser. After 72 h, 25 µL of CellTiter‐Meiluncell Luminescent Cell Viability Reagent (Meilunbio, #PWL111‐2) was added and incubated for 15 min at room temperature. Luminescence signals were then measured using an Envision plate reader (Revvity). Data were analyzed using GraphPad Prism 9.5 software.^[ [30] ^]

[2] = target: T1, SmBiT-CRBN+LgBiT-TEAD1 (Homo sapiens, UniProt P28347+Q96SW2); test: NanoBiT recruitment assay (ternary complex formation) in HEK293T cells; type: cell-based; conditions: 3 h
T1 construct: ternary complex formation between CRBN (41‐442) and TEAD1‐YBD (208‐424) in HEK293T cells; expressed in transfected cells; host or cells: HEK293T (transient co-transfection)
Procedure: CRBN was cloned into the SmBiT Flexi vector pFN35K (Promega), while TEAD1 was cloned into the Promega LgBiT Flexi vector pFN33K (Promega). A total of 8 µg of plasmid DNA, consisting of 2 µg of SmBiT‐CRBN plasmid and 6 µg of LgBiT‐TEAD1 plasmid, was mixed with 24 µL of the liposome transfection reagent Lipo2000 (Meilunbio, #MA0672), added to 300 µL of Opti‐MEM Reduced Serum medium (Meilunbio, #PWL042), and incubated for 20 min at room temperature. The resulting mixture was then added to 3 mL of HEK293T cell suspension at a density of 1 × 10^6 cells mL^−1 in DMEM medium containing 1% FBS, mixed thoroughly, and 18.4 µL of the mixture was transferred to each well of a white 384‐well plate (Corning, #3570), followed by incubation for 24 h. Subsequently, 2.5 µL of MLN4924 (MCE, #HY‐70062) was added to reach a final concentration of 1 µM, and the cells were incubated for an additional 4 h. Next, 3 µL of compound KG‐FP‐003 at the indicated concentrations was added, and incubation continued for 3 more hours. Afterward, a mixture of Nano‐Glo Live Cell Substrate and Nano‐Glo LCS Dilution Buffer (Promega, #N2011) was added to the 384‐well plates at 6 µL per well and incubated for 20 min at room temperature. Finally, the luminescence signal was measured using an Envision plate reader (Revvity), and the data were analyzed using GraphPad Prism 9.5 software.

T1 sequence (Q96SW2 41-442): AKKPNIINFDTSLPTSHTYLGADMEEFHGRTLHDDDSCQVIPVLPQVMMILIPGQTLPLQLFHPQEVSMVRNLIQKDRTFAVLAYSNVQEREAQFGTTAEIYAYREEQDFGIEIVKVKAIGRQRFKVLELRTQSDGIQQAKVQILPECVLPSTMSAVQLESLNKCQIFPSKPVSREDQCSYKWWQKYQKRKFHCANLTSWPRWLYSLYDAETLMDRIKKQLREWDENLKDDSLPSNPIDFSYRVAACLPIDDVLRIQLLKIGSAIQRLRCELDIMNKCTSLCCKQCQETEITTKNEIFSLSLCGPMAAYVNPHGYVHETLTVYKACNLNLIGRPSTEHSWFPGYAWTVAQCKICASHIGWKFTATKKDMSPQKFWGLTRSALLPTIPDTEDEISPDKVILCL
T1 sequence (P28347 208-424): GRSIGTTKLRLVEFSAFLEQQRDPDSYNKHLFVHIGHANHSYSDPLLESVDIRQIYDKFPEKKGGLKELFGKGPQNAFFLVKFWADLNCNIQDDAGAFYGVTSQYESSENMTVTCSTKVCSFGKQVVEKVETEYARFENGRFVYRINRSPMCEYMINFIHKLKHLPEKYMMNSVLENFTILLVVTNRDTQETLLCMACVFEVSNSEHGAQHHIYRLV

Work on `CNC(=O)c1cc2c(c(F)c1-c1c(Cl)c(F)cc3c1C[C@@](CN[C@H]1CC[C@H](C(=O)N4CCC(CC5CCN(C(=O)COc6ccc(N7CCC(=O)NC7=O)c(C)c6)CC5)CC4)CC1)(c1ccccc1)O3)[C@@H](O)[C@@H](C)C2` [KG-FP-003] yielded an IC50 [1] of 7 ± 6 nM and an EC50 [2] of 8 ± 4 nM.
